Entries after “also recorded” stand apart in the source; their conditions may differ.
Legend:
HDAC6 = test: Ac-tubulin immunoblotting in HEK293 cells; format: cell-based
DIO mice [1] = test: Acute leptin co-treatment in DIO mice (body weight, food intake 15 h); format: in vivo; conditions: for body weight 15 h after leptin in inhibitor-pretreated mice / food intake 15 h after leptin in inhibitor-pretreated mice: leptin 1 mg/kg i.p., ACY775 10, ACY738 50, ricolinostat 25 mg/kg/day i.p.; for body weight, inhibitor alone: 3 days pretreatment i.p., ACY775 10, ricolinostat 25 mg/kg; for food intake, inhibitor alone: ACY775 10, ricolinostat 25 mg/kg i.p.
Experimental: DIO mice were pretreated with ACY775 (10 mg/kg/day, i.p.) or vehicle for 3 days, which was followed by co-treatment with ACY775 (or vehicle) and leptin (1 mg/kg, i.p.) (or saline) (n=9 for each group), % change in body weight 15 h after leptin treatment, food intake (g) during the 15 h period after leptin treatment. The results in were reproduced in two independent experiments.
Diet induced obese (DIO) mice were pretreated with ACY775 (10 mg/kg/day, i.p.) or vehicle for 3 days, which was followed by co-treatment with ACY775 (or vehicle) and leptin (1 mg/kg, i.p.) (or saline) (n=9 for each group). Mice were evaluated for % change in body weight 15 h after leptin treatment, and food intake (g) during the 15 h period after leptin treatment.
DIO mice were pretreated with ricolinostat (25 mg/kg/day, i.p.) or vehicle for 3 days, which was followed by co-treatment with ricolinostat (or vehicle) and leptin (1 mg/kg, i.p.) (or saline) (n=32 for each group). Change in body weight 15 h after leptin treatment, and food intake (g) during the 15 h period after leptin treatment were determined. The results were reproduced in two independent experiments.

DIO mice [2] = test: Chronic treatment of DIO mice (body weight, food intake, leptin, DEXA); format: in vivo; conditions: for body weight after treatment / decrease in body weight: 3 weeks; for body weight after treatment / decrease in body weight / body weight before treatment / daily food intake under treatment: ACY775 10, ACY738 50 mg/kg/day i.p.; for fat mass (DEXA) / fat percentage (DEXA) / lean mass (DEXA) / circulating/serum leptin levels: after 3 weeks; for circulating/serum leptin levels: ACY775 10, ACY738 50, ricolinostat 50 mg/kg i.p.; for food intake and total body fat mass: high fat diet induced mice, summary
Experimental: DIO mice were treated with ACY775 (10 mg/kg/day, i.p.) for 3 weeks. Daily body weight (g) of DIO mice treated with vehicle (n=17) or ACY775 (n=17) during 3 weeks of treatment was determined. Daily food intake (g) during 3 weeks of vehicle or ACY775 treatment was assessed. 24 hours' food intake per mouse during the first week of vehicle or ACY775 treatment was determined. Serum leptin (ng/ml) levels after 3 weeks of vehicle (n=24) or ACY775 (n=24) treatment was assessed. Lean mass (g), fat mass (g) and fat percentage (%) after 3 weeks of vehicle (n=17) or ACY775 (n=17) treatment measured by Dual-energy X-ray absorptiometry (DEXA) scan. DEXA scans were performed in two different cohorts. Glucose tolerance test (GTT) after 1 week of vehicle (n=33) or ACY775 (n=26) treated DIO mice was assessed. Area of curve (AOC) analysis for GTT was performed. Blood glucose (mg/dl) levels after 1 week of vehicle (n=17) or ACY775 (n=16) were assessed in treated DIO mice. Insulin tolerance test (ITT) was performed after 2 weeks of vehicle (n=31) or ACY775 (n=21) treatment of DIO mice. Serum insulin (ng/ml) levels were measured after 3 weeks of vehicle (n=22) or ACY775 (n=21) in treated DIO mice. A homeostatic model assessment of insulin resistance (HOMA-IR) was analyzed after 3 weeks of vehicle (n=14) or ACY775 (n=13) treated DIO mice.
Food intake was analyzed hourly until 3:00 am. […] DEXA scans were performed in two different cohorts.
DIO mice then were treated with ricolinostat (50 mg/kg, i.p.) for 3 weeks. Daily body weight (g), daily food intake (g), serum leptin (ng/ml) levels after 3 weeks of vehicle (n=8) or ricolinostat (n=8) treatment, lean mass (g); fat mass and fat percentage (%) after 3 weeks of vehicle (n=16) or ricolinostat (n=17) treatment measured by DEXA scan were determined.
Studies were conducted as described above with reference to ACY775.
DIO mice then were treated with bavarostat (10 mg/kg, i.p.) for 3 weeks and daily body weight (g) of DIO mice treated with Veh (n=9) or bavarostat (n=9) measured during the three weeks of treatment period. Daily food intake (g) during 3 weeks of Veh or bavarostat treatment was also measured.
ACY1083 was administered to DIO mice as described in Example 3.

DIO mice [3] = test: Glucose homeostasis in chronically treated DIO mice (GTT, ITT, insulin, HOMA-IR, liver H&E); format: in vivo; conditions: for blood glucose levels / glucose tolerance (GTT): after 1 week; for circulating/serum insulin levels / hepatic steatosis (liver H&E) / insulin resistance (HOMA-IR): after 3 weeks
Experimental: DIO mice were treated with ACY775 (10 mg/kg/day, i.p.) for 3 weeks. Daily body weight (g) of DIO mice treated with vehicle (n=17) or ACY775 (n=17) during 3 weeks of treatment was determined. Daily food intake (g) during 3 weeks of vehicle or ACY775 treatment was assessed. 24 hours' food intake per mouse during the first week of vehicle or ACY775 treatment was determined. Serum leptin (ng/ml) levels after 3 weeks of vehicle (n=24) or ACY775 (n=24) treatment was assessed. Lean mass (g), fat mass (g) and fat percentage (%) after 3 weeks of vehicle (n=17) or ACY775 (n=17) treatment measured by Dual-energy X-ray absorptiometry (DEXA) scan. DEXA scans were performed in two different cohorts. Glucose tolerance test (GTT) after 1 week of vehicle (n=33) or ACY775 (n=26) treated DIO mice was assessed. Area of curve (AOC) analysis for GTT was performed. Blood glucose (mg/dl) levels after 1 week of vehicle (n=17) or ACY775 (n=16) were assessed in treated DIO mice. Insulin tolerance test (ITT) was performed after 2 weeks of vehicle (n=31) or ACY775 (n=21) treatment of DIO mice. Serum insulin (ng/ml) levels were measured after 3 weeks of vehicle (n=22) or ACY775 (n=21) in treated DIO mice. A homeostatic model assessment of insulin resistance (HOMA-IR) was analyzed after 3 weeks of vehicle (n=14) or ACY775 (n=13) treated DIO mice. […]
Blood glucose (mg/dl) levels were measured after 1 week of vehicle (n=16) or ricolinostat (n=16) treated DIO mice. GTT after 1 week of vehicle (n=17) or ricolinostat (n=16) treatment of DIO mice was assessed. AOC analysis for GTT was performed. ITT after 2 weeks of vehicle (n=17) or ricolinostat (n=16) treated DIG mice was measured. Serum insulin (ng/ml) levels after 3 weeks of vehicle (n=8) or ricolinostat (n=8) treatment were measured in DIO mice. Liver sections from 3 weeks of vehicle or ricolinostat treated DIG mice were stained by H&E.

| SMILES | tubulin acetylation (HDAC6 inhibitor activity) in cells (HDAC6) | body weight 15 h after leptin in inhibitor-pretreated mice (DIO mice [1]) | food intake 15 h after leptin in inhibitor-pretreated mice (DIO mice [1]) | average food intake during the first week vs control (DIO mice [2]; DIO mice) | daily food intake before treatment (DIO mice [2]; DIO mice) [g] | body weight after treatment (DIO mice [2]; DIO mice) [g] | decrease in body weight (DIO mice [2]; DIO mice) | fat mass (DEXA) (DIO mice [2]; DIO mice) | fat percentage (DEXA) (DIO mice [2]; DIO mice) | lean mass (DEXA) (DIO mice [2]; DIO mice) | circulating/serum leptin levels (DIO mice [2]; DIO mice) | body weight before treatment (DIO mice [2]; DIO mice) [g] | daily food intake under treatment (DIO mice [2]; DIO mice) [g] | food intake and total body fat mass (DIO mice [2]) | insulin tolerance test (ITT) / insulin sensitivity (DIO mice [3]) | blood glucose levels (DIO mice [3]) | glucose tolerance (GTT) (DIO mice [3]) | circulating/serum insulin levels (DIO mice [3]) | hepatic steatosis (liver H&E) (DIO mice [3]) | insulin resistance (HOMA-IR) (DIO mice [3]) | further results |
| --- | --- | --- | --- | --- | --- | --- | --- | --- | --- | --- | --- | --- | --- | --- | --- | --- | --- | --- | --- | --- | --- |
| O=C(NO)c1cnc(NC2(c3ccccc3)CC2)nc1 [ACY738] | inhibits the HDAC6 activity | significantly augmented the acute leptin-induced reduction in body weight and food intake | significantly augmented the acute leptin-induced reduction in body weight and food intake | severely reduced | 2.35 ± 0.10 | 37.74 ± 1 | 20.21%±1.32% | significantly decreased | significantly decreased | no change in the lean body mass | significantly decreased | 46.43 ± 0.74 | 1.32 ± 0.05 | significant reduction of food intake and total body fat mass | improved insulin tolerance | significantly reduced | significant improvement of glucose homeostasis | reduced insulin levels | improved hepatic steatosis | ameliorated insulin resistance | – |
| O=C(NO)c1cnc(NC2(c3cccc(F)c3)CCCCC2)nc1 [ACY775, 2-[[1-(3-fluorophenyl)cyclohexyl]amino]-N-hydroxy-5-pyrimidinecarboxamide] | increases tubulin acetylation | further reduction in bodyweight | further augmented the negative effect of leptin on food intake | highly significant reduction | 2.54 ± 0.10 | 33.53 ± 1.19 | 29.58%±1.79% | significantly lower | significantly lower | did not alter the lean mass | significantly downregulated | 48.25 ± 0.87 | 0.85 ± 0.06 | significant reduction of food intake and total body fat mass | significant difference between ACY775-treated mice and those treated with vehicles | significantly reduced | significantly improved glucose tolerance | significantly reduced the circulating insulin levels | almost completely abolished hepatic steatosis | significantly reduced the insulin resistance | body weight, inhibitor alone (DIO mice [1]): significantly decreased the bodyweight; food intake, inhibitor alone (DIO mice [1]): reduced the food intake |
| O=C(CCCCCCNC(=O)c1cnc(N(c2ccccc2)c2ccccc2)nc1)NO [Ricolinostat] | confirmation of Ricolinstat's HDAC6 inhibitory activity | did not reduce the body weight | no effect on the food intake | – | – | – | – | – | – | – | – | – | – | – | did not improves glucose tolerance (FIG. 8M) or insulin sensitivity | did not reduce blood glucose levels | did not improves glucose tolerance | did not reduce insulin levels | no decrease in the hepatic steatosis | – | body weight, inhibitor alone (DIO mice [1]): did not decrease the bodyweight; food intake, inhibitor alone (DIO mice [1]): no effect on the food intake; body weight effect of chronic treatment (DIO mice [2]; DIO mice, 3 weeks i.p., bavarostat 10, citarinostat 25, ricolinostat 50 mg/kg): minimal decrease in bodyweight for the first couple of days without creating any meaningful or significant decreases; also recorded: does not reduce body weight; food intake during chronic treatment (DIO mice [2]; DIO mice, 3 weeks i.p., bavarostat 10, ricolinostat 50 mg/kg): reduced transitionally during the first 2-3 days of treatment but then rebounded |

— US20240252496A1, “SELECTIVE HYPOTHALAMUS PERMEABLE HDAC6 INHIBITORS FORTREATMENT OF LEPTIN-RESISTANT OBESITY” (The Children’s Medical Center Corporation, priority 2022, published 2024)
